Columns and labels:
[1] = biological target: Dihydrofolate reductase (Lactobacillus casei) (UniProt P00381); settings: Lacticaseibacillus casei
Description: Concentration of inhibitor required to decrease binding of [3H]MTX radioligand to Lactobacillus casei dihydrofolate reductase by 50%.

[2] = biological target: Dihydrofolate reductase (Lactobacillus casei) (UniProt P00381); settings: Lacticaseibacillus casei; remark: listed apart in the source
Description: Tested for 50% reversible inhibition of Lactobacillus casei dihydrofolate reductase (spectrophotometric assay).

[3] = biological target: T1, Dihydrofolate reductase (Mus musculus) (UniProt P00375); settings: L1210
T1 sequence (whole entry): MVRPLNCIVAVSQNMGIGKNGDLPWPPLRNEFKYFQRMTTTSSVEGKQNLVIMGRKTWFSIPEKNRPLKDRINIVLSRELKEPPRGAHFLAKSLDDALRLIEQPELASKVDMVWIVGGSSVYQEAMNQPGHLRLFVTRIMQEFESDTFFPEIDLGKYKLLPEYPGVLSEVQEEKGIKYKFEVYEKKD
Description: Concentration of inhibitor to decrease binding of [3H]MTX radioligand to Dihydrofolate reductase from L1210 cells by 50%.

Sequence of Dihydrofolate reductase (Lactobacillus casei) (P00381 whole entry): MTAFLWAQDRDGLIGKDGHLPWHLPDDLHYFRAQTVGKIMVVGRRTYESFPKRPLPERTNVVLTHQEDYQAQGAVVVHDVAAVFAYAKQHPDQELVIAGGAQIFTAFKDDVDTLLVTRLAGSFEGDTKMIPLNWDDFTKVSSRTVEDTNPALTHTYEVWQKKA

Row | ID50 [1] [nM] | ID50 [2] [nM] | ID50 [3] [nM] | SMILES
1 | 31 | 4.5 | 9.8 | CN(Cc1cnc2nc(N)nc(N)c2n1)c1ccc(C(=O)NC(CCCCNC(=O)CI)C(=O)O)cc1 (centres undefined)
2 | 45 | 14 | 11 | CN(Cc1cnc2nc(N)nc(N)c2n1)c1ccc(C(=O)NC(CCCCNC(=O)OCc2ccccc2)C(=O)O)cc1 (centres undefined)
3 | 122 | 23 | 11 | CN(Cc1cnc2nc(N)nc(N)c2n1)c1ccc(C(=O)NC(CCCCN)C(=O)O)cc1 (centres undefined)

— ChEMBL document CHEMBL1122114
